Measured values taken from patent US12286625B2, “Inhibition of mir-22 miRNA by APT-110” (AptamiR Therapeutics, Inc., priority 2016, dated 2025).
Like-named read-outs stand apart in the source and are kept apart here.

Tested on: DIO C57BL/6 male mice
Assay type: in vivo, mouse
Design: Plasma adiponectin: unit not given here
Method: A dedicated study was conducted under contract at the University of Buckingham Institute of Translational Medicine (Pr. M A Cawthorne, Pr. P Trayhurn, Dr. C. Stocker) to assess the energetic and metabolic responses to the APT-110 miR-22-3p inhibitor treatment in adult Diet-Inducted-Obese (DIO) C57BL/6 male mice over the course of 3 months. Twenty-four DIO male C57BL/6 mice, who started on 60% high fat diet at the age of 7 weeks, were purchased at 15 weeks of age from the Jackson Laboratory, USA. The mice remained on a 60% high fat diet (Research Diet D12492) throughout the experiment. The mice were kept on a 12 h light/12 h dark light cycle with lights on at 08h00 and at a room temperature of 25±1° C. The mice were allocated to 2 groups of 12 mice each, (2 mice/cage) so that mean and standard deviation for body weight, blood glucose and serum insulin were similar across both groups. Mice were acclimated for two weeks before treatment initiation.
For oral glucose tolerance test, food was removed six hours prior to the start of the glucose tolerance test (09h00) and animals were placed in clean cages. Mice were dosed with glucose at T=0 minutes. Glucose was dissolved in water and given to the mice by oral gavage at a dose of 2.5 g/kg p.o. Blood samples […] were taken from the cut tip of the tail after the application of Lidocaine gel (Biorex Laboratories UK) for the analysis of glucose concentration at −30, 0, 30, 60, 120 and 180 minutes relative to glucose administration. Blood samples were also taken at −30 and +30 minutes for insulin analysis (Crystal Chem Inc. Cat INS90090). Food was returned to the animals at the end of the glucose tolerance test. Plasma nonesterified Fatty Acids (NEFA, Crystal Wako Chemicals Gmbh, Neuss, Germany, Cat 999-75406), leptin (Crystal Chem. Inc., Cat LEP90030) and adiponectin (Alpco Diagnostics, Salem, New Hampshire, Cat 47-ADPMS-E01) were measured as per the manufacturers' recommendations. Body fat and lean content was measured by Nuclear Magnetic Resonance (NMR). Comparison with calibrated standards allowed identification of types of tissue by their density. Dedicated software was used to quantify amounts of adipose and […]. The mice were gently restrained, sufficient to keep them quiescent during this non-invasive technique.
To measure physical activity, mice were kept in their original cages of 2 mice per cage. Recordings were taken using an infra-red recorder linked to a laptop. Recordings were made on the hour every hour from 7 pm until 8 am. Each recording was of 10-minute duration. Lights went out at 8 pm and came on again at 8 am. Analysis of activity was done by virtually drawing 2 lines across each cage (thus dividing them into 3 equal parts). Recordings were analyzed by eye and the number of times a line was broken by a mouse in each 10-minute segment was scored. Energy expenditure was measured at several time points during the course of the study by open-circuit indirect calorimetry with mice kept in their home cages (6 cages of 2 mice per experimental group (Arch, J. R., et al., 2006; Arch, J. R. and P. Trayhurn, 2013).
At the end of the study, tissues and organs were collected, then frozen for future gene expression analysis or placed in 10% neutral buffered formalin solution (Sigma-Aldrich Cat HT501128), then washed in PBS, pH 7.4 and transferred to 70% ethanol for subsequent processing for histologic and immunohistochemistry analyses.
In some studies, non-esterified fatty acids (NEFA), plasma leptin and adiponectin were also measured and oral glucose tolerance tests (OGTT) were performed. Oral glucose tolerance test was performed as follows: Six hours prior to the start of the glucose tolerance test (09h00), food was removed and animals were given clean cages. Mice were dosed with glucose at T=0 minutes. […]

[1] = Day −2 (before treatment), 6 hours fast
[2] = end of 12-week study, Mean ± SEM

5′-5mCpsTpsTps2′OMeCpsTpsTps5mCpsApsAps2′OMeCpsTpsGpsGps5mCpsApsGps5mCpsT-3′ [APT-110]
24-hr energy expenditure vs saline (Day 10 of treatment): did not show a difference | energy expenditure vs saline (Day 11, confirmed on Day 28 and Day 52): increase in energy expenditure | Blood glucose (Day 44, 6 hours fast): 9.01 ± 0.19 mmol/L | Plasma adiponectin (Day 44, 6 hours fast): 2.66 ± 0.15 | Plasma insulin (Day 44, 6 hours fast): 295 ± 25 pmol/L | Plasma leptin (Day 44, 6 hours fast): 4.85 ± 0.42 nmol/L | Oral Glucose Tolerance Test profile (Day 75, glucose 2.5 g/kg p.o., saline mice diabetic profile): normal profile | Blood glucose (Day 79, 6 hours fast): 5.71 ± 0.18 mmol/L | Plasma adiponectin (Day 79, 6 hours fast): 3.16 ± 0.13 | Plasma insulin (Day 79, 6 hours fast): 220 ± 17 pmol/L | Plasma leptin (Day 79, 6 hours fast): 4.21 ± 0.54 nmol/L | Cholesterol (Day 85, 6-hour fast, p<0.0001): 4.67 ± 0.16 mmol/L | Non Esterified Fatty Acids (Day 85, 6-hour fast, p=0.003): 1.71 ± 0.08 mmol/L | Triglycerides (Day 85, 6-hour fast, p=0.11): 1.46 ± 0.08 mmol/L | Blood glucose [1]: 6.69 ± 0.27 mmol/L | Plasma adiponectin [1]: 3.16 ± 0.13 | Plasma insulin [1]: 179 ± 18 pmol/L | Plasma leptin [1]: 3.11 ± 0.45 nmol/L | fat mass difference vs saline (NMR) (Week 12, Day 82): −12% | lean mass (NMR) (Week 12, Day 82): identical in both groups | total daily energy expenditure greater than saline (average, day 11 to day 53): 13% | insulin sensitivity (fasting Insulin/Glucose ratio over time) (course of the 12-week study, control group developed insulin resistance): maintain the same level of insulin sensitivity | Epdidymal fat weight [2]: 1.8 ± 0.978 grams | Inguinal fat weight [2]: 3.166 ± 0.135 grams | Liver weight [2]: 2.442 ± 0.127 grams | Peri-renal fat weight [2]: 1.183 ± 0.096 grams | Subscapular fat weight [2]: 0.202 ± 0.020 grams | weight gain vs mice receiving saline injections (week 12 of treatment, 60% high fat diet): −30%
